Assay results taken from US12495798B2, “Nicotinamide compound and herbicidal composition comprising compound” (KOREA RESEARCH INSTITUTE OF CHEMICAL TECHNOLOGY, priority 2019, dated 2025).

What was measured:
Assay type in all cases: in vivo
rice = test: Phytotoxicity test for upland field crops (foliar treatment test); set-up: key: 0 (no harm); 9 (complete withered)
Experimental: (§1) Experimental Example 3: Phytotoxicity Test for Upland Field Crops (Foliar Treatment Test)
(§2) Foliar treatment was performed for grown crops and weeds in a square plastic pot having a surface area of 50 cm^2 filled with horticultural soil. As a fertilizer per pot, 0.5 g of horticultural mixed fertilizer (N:P:K=17:21:17) was treated by mixing in the upper soil. Five kinds of crops such as rice, wheat, corn, soybean, and cotton were sown in each pot, and after growing for a certain period in greenhouse conditions (average temperature 30±5° C., light/dark=14/10 hours), test compound solutions were made by diluting with the diluent (33% acetone, 0.1% Tween-20) so that the final treatment amount of the test compounds was 19˜300 g a.i./ha. The prepared test compound solutions were treated using a spray booth (SB6-016) at a treatment amount of 100 ml per 1 m^2 of treatment area. The treated plants were managed under the same greenhouse conditions as above, and external symptoms and phytotoxicity were investigated 7 and 14 days after treatment (after 21 days if necessary). In the evaluation of the phytotoxicity for the crop, the grade of 0 (no harm) to 9 (complete withered) was used. The results of Table 9 were obtained by evaluating crop phytotoxicity value to the untreated control.

wheat = test: as above; set-up: key: 0 (no harm); 9 (complete withered)
Experimental: as §1, §2

soybean = test: as above; set-up: key: 0 (no harm); 9 (complete withered)
Experimental: as §1, §2

cotton = test: as above; set-up: key: 0 (no harm); 9 (complete withered)
Experimental: as §1, §2

corn = test: as above; set-up: key: 0 (no harm); 9 (complete withered)
Experimental: as §1, §2

velvetleaf = test: Herbicidal activity test against upland field weeds (foliar treatment test); set-up: key to Foliar treatment herbicidal activity, velvet leaf: 0 (no control); 100 (complete control); conditions: 50 g ai/ha; for pest or weed control at 50 g/ha: Abutilon theophrasti, scale 0-100, read-out: Foliar treatment herbicidal activity, velvet leaf; for Foliar treatment herbicidal activity, velvet leaf: scale 0-100
Experimental: (§3) Experimental Example 1: Herbicidal Activity Test Against Upland Field Weeds (Foliar Treatment Test) Foliar treatment was performed as follows: After filling a square plastic pot having a surface area of 350 cm^2 with horticultural soil, seeds (10˜15 grains) or rootstocks (2 pieces) of 5 kinds of grassy weeds of sorghum, barnyard grass, quack grass, crabgrass, fall panicum, and 5 kinds of broadleaf weeds of black nightshade, indian jointvetch, velvetleaf, cocklebur, bindweed, which had been stored in a low temperature (6° C.), were sown. After growing for a certain period in greenhouse conditions (average temperature 30±5° C., light/dark=14/10 hours), test compound solutions were made by diluting with a preparation solution (including 50% acetone, 0.1% Tween-20) so that the final treatment amount of the test compounds was 50 or 75 g a.i./ha. The prepared test compound solution was used for treating foliage by hand-spraying 14 mL per pot in a fume hood. After the treatment, it was managed under the same greenhouse conditions as above, and after 14 days (after 21 days if necessary), the external symptoms and efficacy were investigated according to the scale of 0 (no control) to 100 (complete control). The results of Table 7 were obtained by evaluating weed control value to the untreated control by conducting visual assessment.

black nightshade = test: as above; conditions: Solanum nigrum, 50 g ai/ha, scale 0-100
Experimental: as §3

crabgrass = test: as above; set-up: key to Foliar treatment herbicidal activity, Crabgrass: 0 (no control); 100 (complete control); conditions: 50 g ai/ha, scale 0-100
Experimental: as §3

bindweed = test: as above; set-up: key to Foliar treatment herbicidal activity, Bindweed: 0 (no control); 100 (complete control); conditions: 50 g ai/ha, scale 0-100
Experimental: as §3

indian jointvetch = test: as above; set-up: key to Foliar treatment herbicidal activity, Indian jointvetch: 0 (no control); 100 (complete control); conditions: 50 g ai/ha, scale 0-100
Experimental: as §3

cocklebur = test: as above; set-up: key to Foliar treatment herbicidal activity, Cocklebur: 0 (no control); 100 (complete control); conditions: 50 g ai/ha, scale 0-100; for pest or weed control at 50 g/ha: Xanthium strumarium
Experimental: as §3

fall panicum = test: as above; set-up: key to Foliar treatment herbicidal activity, Fall panicum: 0 (no control); 100 (complete control); conditions: 50 g ai/ha, scale 0-100
Experimental: as §3

quack grass = test: as above; set-up: key to Foliar treatment herbicidal activity, quack grass: 0 (no control); 100 (complete control); conditions: 50 g ai/ha, scale 0-100
Experimental: as §3

barnyard grass = test: as above; set-up: key to Foliar treatment herbicidal activity, barnyard grass: 0 (no control); 100 (complete control); conditions: 50 g ai/ha, scale 0-100
Experimental: as §3

sorghum = test: as above; set-up: key to Foliar treatment herbicidal activity, Sorghum: 0 (no control); 100 (complete control); conditions: 50 g ai/ha, scale 0-100
Experimental: as §3

[1] = 50 g ai/ha, Rice (7 days after treatment)
[2] = 50 g ai/ha, Rice (14 days after treatment)
[3] = 100 g ai/ha, Rice (7 days after treatment)
[4] = 100 g ai/ha, Rice (14 days after treatment)
[5] = 50 g ai/ha, Wheat (7 days after treatment)
[6] = 50 g ai/ha, Wheat (14 days after treatment)
[7] = 100 g ai/ha, Wheat (7 days after treatment)
[8] = 100 g ai/ha, Wheat (14 days after treatment)
[9] = 50 g ai/ha, Soybean (7 days after treatment)
[10] = 50 g ai/ha, Soybean (14 days after treatment)
[11] = 100 g ai/ha, Soybean (7 days after treatment)
[12] = 100 g ai/ha, Soybean (14 days after treatment)
[13] = 50 g ai/ha, Cotton (7 days after treatment)
[14] = 50 g ai/ha, Cotton (14 days after treatment)
[15] = 100 g ai/ha, Cotton (7 days after treatment)
[16] = 100 g ai/ha, Cotton (14 days after treatment)
[17] = 50 g ai/ha, Corn (7 days after treatment)
[18] = 50 g ai/ha, Corn (14 days after treatment)
[19] = 100 g ai/ha, Corn (7 days after treatment)
[20] = 100 g ai/ha, Corn (14 days after treatment)

SMILES | pest or weed control at 50 g/ha (velvetleaf) [%] | pest or weed control at 50 g/ha (black nightshade) [%] | Foliar treatment herbicidal activity, Crabgrass (crabgrass) | pest or weed control at 50 g/ha (bindweed) [%] | pest or weed control at 50 g/ha (indian jointvetch) [%] | pest or weed control at 50 g/ha (cocklebur) [%] | Foliar treatment herbicidal activity, Fall panicum (fall panicum) | Foliar treatment herbicidal activity, quack grass (quack grass) | Foliar treatment herbicidal activity, barnyard grass (barnyard grass) | Foliar treatment herbicidal activity, Sorghum (sorghum) | Foliar treatment herbicidal activity, velvet leaf (velvetleaf) | Foliar treatment herbicidal activity, Bindweed (bindweed) | Foliar treatment herbicidal activity, Indian jointvetch (indian jointvetch) | further results
Cn1nnnc1CSc1nc(C(F)(F)F)ccc1C(=S)Nc1nnnn1C [1-44] | – | – | – | – | – | – | – | – | – | – | – | – | – | Foliar treatment phytotoxicity, Rice (rice; [1]): 6; Foliar treatment phytotoxicity, Rice (rice; [2]): 9; Foliar treatment phytotoxicity, Rice (rice; [3]): 6; Foliar treatment phytotoxicity, Rice (rice; [4]): 9; Foliar treatment phytotoxicity, Wheat (wheat; [5]): 0; Foliar treatment phytotoxicity, Wheat (wheat; [6]): 0; Foliar treatment phytotoxicity, Wheat (wheat; [7]): 0; Foliar treatment phytotoxicity, Wheat (wheat; [8]): 0; Foliar treatment phytotoxicity, Soybean (soybean; [9]): 6; Foliar treatment phytotoxicity, Soybean (soybean; [10]): 7; Foliar treatment phytotoxicity, Soybean (soybean; [11]): 6; Foliar treatment phytotoxicity, Soybean (soybean; [12]): 7; Foliar treatment phytotoxicity, Cotton (cotton; [13]): 4; Foliar treatment phytotoxicity, Cotton (cotton; [14]): 9; Foliar treatment phytotoxicity, Cotton (cotton; [15]): 5; Foliar treatment phytotoxicity, Cotton (cotton; [16]): 9; Foliar treatment phytotoxicity, Corn (corn; [17]): 5; Foliar treatment phytotoxicity, Corn (corn; [18]): 3; Foliar treatment phytotoxicity, Corn (corn; [19]): 5; Foliar treatment phytotoxicity, Corn (corn; [20]): 3
Cn1nnnc1COc1nc(C(F)(F)F)ccc1C(=O)Nc1nnnn1C(F)F [Compound No. 1-4, N-(1-(difluoromethyl)-1H-tetrazol-5-yl)-2-((1-methyl-1H-tetrazol-5-yl)methoxy)-6-(trifluoromethyl)nicotinamide] | 20 | 80 | 0 | 20 | 20 | 60 | 0 | 0 | 0 | 0 | – | – | – | –
Cn1nnnc1COc1nc(C(F)(F)F)cc(Cl)c1C(=O)Nc1nnnn1C [Compound No. 1-13, 4-chloro-N-(1-methyl-1H-tetrazol-5-yl)-2-((1-methyl-1H-tetrazol-5-yl)methoxy)-6-(trifluoromethyl)nicotinamide] | – | 60 | 0 | – | – | 20 | 0 | 0 | 0 | 0 | 0 | 0 | 0 | –
Cn1nnnc1COc1nc(Cl)ccc1C(=O)Nc1nnnn1C [Compound No. 1-20, 6-chloro-N-(1-methyl-1H-tetrazol-5-yl)-2-((1-methyl-1H-tetrazol-5-yl)methoxy)nicotinamide] | – | 50 | 0 | – | – | 20 | 0 | 0 | 0 | 0 | 0 | 0 | 0 | –
Cn1nnnc1NC(=O)c1ccc(C(F)(F)F)nc1COCc1nnnn1C(F)F [Compound No. 1-85, 2-(((1-(difluoromethyl)-1H-tetrazol-5-yl)methoxy)methyl)-N-(1-methyl-1H-tetrazol-5-yl)-6-(trifluoromethyl)nicotinamide] | 20 | – | 0 | 40 | 40 | 90 | – | 0 | 0 | 0 | – | – | – | pest or weed control at 50 g/ha (fall panicum; Panicum dichotomiflorum): 40%
Cn1nnnc1NC(=O)c1ccc(C(F)(F)F)nc1COc1nnnn1C [Compound No. 1-115, N-(1-methyl-1H-tetrazol-5-yl)-2-(((1-methyl-1H-tetrazol-5-yl)oxy)methyl)-6-(trifluoromethyl)nicotinamide] | 40 | 95 | 0 | 80 | 40 | 80 | 0 | 0 | – | 0 | – | – | – | pest or weed control at 50 g/ha (barnyard grass; Echinochloa crus-galli): 30%
Cn1nnc(CNc2nc(C(F)(F)F)ccc2C(=O)Nc2nnnn2C)n1 [Compound No. 2-32, N-(1-methyl-1H-tetrazol-5-yl)-2-(((2-methyl-2H-tetrazol-5-yl)methyl)amino)-6-(trifluoromethyl)nicotinamide] | – | 40 | 0 | – | – | – | 0 | 0 | 0 | 0 | 0 | 0 | 0 | Foliar treatment herbicidal activity, Cocklebur (cocklebur): 0
COC(=O)OC(C)N(C(=O)c1ccc(C(F)(F)F)nc1COCc1ncn(C)n1)c1nnnn1C (stereo not drawn) [Compound No. 4-1, methyl(1-(2-(((1-methyl-1H-1,2,4-triazol-3-yl)methoxy)methyl)-N-(1-methyl-1H-tetrazol-5-yl)-6-(trifluoromethyl)nicotinamido)ethyl)carbonate] | – | – | – | – | – | – | – | – | – | – | – | – | – | Foliar treatment phytotoxicity, Rice (rice; [1]): 2; Foliar treatment phytotoxicity, Rice (rice; [2]): 6; Foliar treatment phytotoxicity, Rice (rice; [3]): 3; Foliar treatment phytotoxicity, Rice (rice; [4]): 7; Foliar treatment phytotoxicity, Wheat (wheat; [5]): 0; Foliar treatment phytotoxicity, Wheat (wheat; [6]): 0; Foliar treatment phytotoxicity, Wheat (wheat; [7]): 0; Foliar treatment phytotoxicity, Wheat (wheat; [8]): 0; Foliar treatment phytotoxicity, Soybean (soybean; [9]): 4; Foliar treatment phytotoxicity, Soybean (soybean; [10]): 6; Foliar treatment phytotoxicity, Soybean (soybean; [11]): 4; Foliar treatment phytotoxicity, Soybean (soybean; [12]): 8; Foliar treatment phytotoxicity, Cotton (cotton; [13]): 3; Foliar treatment phytotoxicity, Cotton (cotton; [14]): 8; Foliar treatment phytotoxicity, Cotton (cotton; [15]): 3; Foliar treatment phytotoxicity, Cotton (cotton; [16]): 8; Foliar treatment phytotoxicity, Corn (corn; [17]): 0; Foliar treatment phytotoxicity, Corn (corn; [18]): 0; Foliar treatment phytotoxicity, Corn (corn; [19]): 0; Foliar treatment phytotoxicity, Corn (corn; [20]): 0
